The values below come from ChEMBL document CHEMBL5291721, “A preclinical secondary pharmacology resource illuminates target-adverse drug reaction associations of marketed drugs” (Nat Commun, 2023).

For test [1], the target named is T1, Peroxisome proliferator-activated receptor alpha (Homo sapiens, UniProt Q07869).
T1 sequence (Q07869 whole entry): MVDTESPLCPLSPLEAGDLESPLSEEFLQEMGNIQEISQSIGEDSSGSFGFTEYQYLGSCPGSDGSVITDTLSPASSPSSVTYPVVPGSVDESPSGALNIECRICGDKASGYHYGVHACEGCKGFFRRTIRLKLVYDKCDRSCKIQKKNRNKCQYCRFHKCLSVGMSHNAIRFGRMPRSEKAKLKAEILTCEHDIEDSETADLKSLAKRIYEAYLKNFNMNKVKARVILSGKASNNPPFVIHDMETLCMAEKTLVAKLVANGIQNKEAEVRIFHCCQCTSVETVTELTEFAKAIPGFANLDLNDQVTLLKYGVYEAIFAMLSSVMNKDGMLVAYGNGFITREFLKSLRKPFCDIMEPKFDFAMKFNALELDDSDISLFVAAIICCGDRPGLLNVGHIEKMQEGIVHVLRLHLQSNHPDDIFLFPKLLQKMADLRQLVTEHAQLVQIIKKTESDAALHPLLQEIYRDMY
The format is functional.

Test [2] deals with T2, Type-1 angiotensin II receptor (Homo sapiens, UniProt P30556).
T2 sequence (P30556 whole entry): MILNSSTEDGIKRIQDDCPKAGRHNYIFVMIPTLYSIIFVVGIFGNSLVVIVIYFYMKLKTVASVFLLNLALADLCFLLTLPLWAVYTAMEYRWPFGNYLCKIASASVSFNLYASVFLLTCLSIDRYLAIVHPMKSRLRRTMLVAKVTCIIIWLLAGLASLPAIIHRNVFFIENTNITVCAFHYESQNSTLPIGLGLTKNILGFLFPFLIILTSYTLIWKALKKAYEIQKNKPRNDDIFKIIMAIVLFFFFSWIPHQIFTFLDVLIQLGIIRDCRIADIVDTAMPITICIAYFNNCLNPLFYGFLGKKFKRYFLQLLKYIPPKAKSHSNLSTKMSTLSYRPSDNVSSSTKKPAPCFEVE

Test [3] deals with D(1A) dopamine receptor (Homo sapiens, UniProt P21728).
For test [4], the target named is T3, Estrogen receptor (Homo sapiens, UniProt P03372).
T3 sequence (P03372 whole entry): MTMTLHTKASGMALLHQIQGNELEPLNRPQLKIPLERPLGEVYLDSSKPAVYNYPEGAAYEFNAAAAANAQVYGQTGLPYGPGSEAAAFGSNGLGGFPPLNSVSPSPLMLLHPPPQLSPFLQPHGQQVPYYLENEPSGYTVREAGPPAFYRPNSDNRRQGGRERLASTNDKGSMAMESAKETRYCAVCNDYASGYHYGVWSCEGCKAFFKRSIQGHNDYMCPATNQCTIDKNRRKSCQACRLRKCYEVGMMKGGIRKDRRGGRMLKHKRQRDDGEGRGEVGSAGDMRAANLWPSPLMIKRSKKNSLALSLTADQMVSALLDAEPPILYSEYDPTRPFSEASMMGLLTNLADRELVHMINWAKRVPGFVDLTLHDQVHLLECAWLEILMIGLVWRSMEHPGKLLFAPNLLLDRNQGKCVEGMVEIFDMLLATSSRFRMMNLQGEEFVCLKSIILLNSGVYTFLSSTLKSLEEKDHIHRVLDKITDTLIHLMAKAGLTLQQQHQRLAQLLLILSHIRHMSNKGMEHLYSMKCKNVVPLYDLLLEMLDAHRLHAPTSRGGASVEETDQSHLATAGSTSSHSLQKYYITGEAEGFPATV

Test [5] concerns the target T4, Adenosine receptor A3 (Homo sapiens, UniProt P0DMS8).
T4 sequence (P0DMS8 whole entry): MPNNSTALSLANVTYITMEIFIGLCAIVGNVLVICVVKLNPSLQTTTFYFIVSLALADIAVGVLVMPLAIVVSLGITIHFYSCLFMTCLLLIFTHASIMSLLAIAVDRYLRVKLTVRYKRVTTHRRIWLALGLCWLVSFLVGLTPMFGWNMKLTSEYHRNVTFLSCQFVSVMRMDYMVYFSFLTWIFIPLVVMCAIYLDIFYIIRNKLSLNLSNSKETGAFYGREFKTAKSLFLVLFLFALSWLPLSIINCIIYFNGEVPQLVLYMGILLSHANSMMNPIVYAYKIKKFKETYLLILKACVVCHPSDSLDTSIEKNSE

Test [6] concerns the target 3',5'-cyclic-AMP phosphodiesterase 4A (Homo sapiens, UniProt P27815). The format is functional.
In test [7] the target is T5, Amine oxidase [flavin-containing] A (Homo sapiens, UniProt P21397).
T5 sequence (P21397 whole entry): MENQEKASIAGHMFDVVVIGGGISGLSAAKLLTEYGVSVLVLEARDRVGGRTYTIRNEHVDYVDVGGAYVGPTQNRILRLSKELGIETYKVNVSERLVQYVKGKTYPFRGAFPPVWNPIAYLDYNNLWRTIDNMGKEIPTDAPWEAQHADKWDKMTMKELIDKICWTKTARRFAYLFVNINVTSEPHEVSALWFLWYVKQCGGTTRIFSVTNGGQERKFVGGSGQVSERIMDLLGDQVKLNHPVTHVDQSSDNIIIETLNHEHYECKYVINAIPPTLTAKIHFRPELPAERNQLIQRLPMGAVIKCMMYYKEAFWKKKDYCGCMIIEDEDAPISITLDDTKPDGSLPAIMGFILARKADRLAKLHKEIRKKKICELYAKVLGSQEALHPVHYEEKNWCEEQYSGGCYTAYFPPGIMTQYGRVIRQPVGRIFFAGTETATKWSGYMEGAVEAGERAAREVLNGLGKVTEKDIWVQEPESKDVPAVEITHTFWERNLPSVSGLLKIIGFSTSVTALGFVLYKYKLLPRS
The class given is functional.

Test [8] has as its target T6, Alpha-2A adrenergic receptor (Homo sapiens, UniProt P08913).
T6 sequence (P08913 whole entry): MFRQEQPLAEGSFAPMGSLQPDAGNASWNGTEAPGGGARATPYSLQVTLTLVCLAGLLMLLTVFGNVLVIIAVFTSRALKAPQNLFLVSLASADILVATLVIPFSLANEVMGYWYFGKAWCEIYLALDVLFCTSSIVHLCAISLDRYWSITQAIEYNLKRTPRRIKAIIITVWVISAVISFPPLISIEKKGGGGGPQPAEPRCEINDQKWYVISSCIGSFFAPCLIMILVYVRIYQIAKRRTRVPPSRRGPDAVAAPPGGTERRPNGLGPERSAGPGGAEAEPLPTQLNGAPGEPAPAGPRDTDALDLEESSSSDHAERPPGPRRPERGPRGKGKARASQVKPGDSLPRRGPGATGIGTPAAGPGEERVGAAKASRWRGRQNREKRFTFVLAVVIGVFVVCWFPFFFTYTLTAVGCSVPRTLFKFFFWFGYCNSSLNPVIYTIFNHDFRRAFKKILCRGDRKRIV

Structures are written as SMILES. Some results are limits rather than exact numbers.
Note: assay procedure not described here.

3',5'-cyclic-AMP phosphodiesterase 4A, sequence (P27815 whole entry): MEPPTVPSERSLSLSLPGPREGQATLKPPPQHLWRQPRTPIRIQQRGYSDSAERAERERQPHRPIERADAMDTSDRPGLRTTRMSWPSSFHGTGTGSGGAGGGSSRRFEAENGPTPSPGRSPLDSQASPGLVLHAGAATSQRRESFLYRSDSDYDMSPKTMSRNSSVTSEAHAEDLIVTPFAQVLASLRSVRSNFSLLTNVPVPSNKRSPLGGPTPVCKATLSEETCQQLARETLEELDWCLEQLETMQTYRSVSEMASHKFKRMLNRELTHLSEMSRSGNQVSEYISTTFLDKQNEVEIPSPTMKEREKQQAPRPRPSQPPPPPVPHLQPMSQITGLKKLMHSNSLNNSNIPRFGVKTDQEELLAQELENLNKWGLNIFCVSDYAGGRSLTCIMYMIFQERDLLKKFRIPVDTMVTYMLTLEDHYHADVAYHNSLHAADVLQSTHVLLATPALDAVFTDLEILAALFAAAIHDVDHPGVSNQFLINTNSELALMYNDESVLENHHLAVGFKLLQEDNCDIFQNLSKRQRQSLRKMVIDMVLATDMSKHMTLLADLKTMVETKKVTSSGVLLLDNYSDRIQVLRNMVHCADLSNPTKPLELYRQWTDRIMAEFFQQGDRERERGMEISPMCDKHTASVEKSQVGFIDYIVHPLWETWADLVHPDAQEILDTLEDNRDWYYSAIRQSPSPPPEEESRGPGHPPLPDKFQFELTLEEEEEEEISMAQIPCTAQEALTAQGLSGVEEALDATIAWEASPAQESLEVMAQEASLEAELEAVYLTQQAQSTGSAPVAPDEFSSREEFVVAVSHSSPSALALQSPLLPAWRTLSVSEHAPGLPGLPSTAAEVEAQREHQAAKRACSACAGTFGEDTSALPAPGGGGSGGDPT
D(1A) dopamine receptor, sequence (P21728 whole entry): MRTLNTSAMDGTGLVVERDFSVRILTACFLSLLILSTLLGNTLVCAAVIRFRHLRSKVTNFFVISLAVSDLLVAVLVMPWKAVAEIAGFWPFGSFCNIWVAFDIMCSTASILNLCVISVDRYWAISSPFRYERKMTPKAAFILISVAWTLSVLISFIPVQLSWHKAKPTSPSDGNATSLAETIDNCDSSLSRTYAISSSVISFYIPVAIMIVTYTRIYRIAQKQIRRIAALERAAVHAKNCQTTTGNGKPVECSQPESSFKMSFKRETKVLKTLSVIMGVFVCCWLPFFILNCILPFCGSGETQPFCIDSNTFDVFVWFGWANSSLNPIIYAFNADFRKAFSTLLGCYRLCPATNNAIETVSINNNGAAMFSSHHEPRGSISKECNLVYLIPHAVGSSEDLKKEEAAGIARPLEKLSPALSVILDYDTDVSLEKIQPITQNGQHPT

By AC50 is commonly meant the midpoint of the concentration-response curve, whichever way the signal moves. In test [1], `CCOC(=O)C(C)(C)Oc1ccc(Cl)cc1` [CLOFIBRATE] returned an AC50 of over 30 µM.

With `O=c1c(O)c(-c2ccc(O)c(O)c2)oc2cc(O)cc(O)c12` [QUERCETIN], the AC50 in test [2] was over 100 µM.

As for `CCN(CC)CCCC(C)Nc1c2ccc(Cl)cc2nc2ccc(OC)cc12` (stereo not drawn) [QUINACRINE], the AC50 in test [3] is 12.3 µM; in test [4] it was over 30 µM; in test [5], over 30 µM; in test [6] it was over 10 µM; in test [7], over 30 µM; in test [8], 11.9 µM.
